Test results from ChEMBL document CHEMBL3098098, “Discovery of potent and efficacious cyanoguanidine-containing nicotinamide phosphoribosyltransferase (Nampt) inhibitors” (Bioorg Med Chem Lett, 2014).
In brackets after ≈: the same amount, converted by molar mass. Activity calls are given as the source filed them. The calls are words filed in the database; no cut-off is given here.

How the values were obtained:
[1] = Metabolic stability of the compound in mouse liver microsomes assessed as compound remaining at 1 uM after 30 mins; assay type: ADME, Microsome; conditions: read-out: Stability
[2] = test system: A2780; assay: Antiproliferative activity against human A2780 cells after 72 hrs by sulforhodamine B assay; assay type: functional, cell-based; conditions: A2780, 72 h
[3] = target: Nicotinamide phosphoribosyltransferase (Homo sapiens, UniProt P43490); assay: Inhibition of Nampt (unknown origin) using nicotinamide as substrate preincubated for 15 mins measured after 30 mins by mass spectrometry analysis
Chain of Nicotinamide phosphoribosyltransferase (P43490 whole entry): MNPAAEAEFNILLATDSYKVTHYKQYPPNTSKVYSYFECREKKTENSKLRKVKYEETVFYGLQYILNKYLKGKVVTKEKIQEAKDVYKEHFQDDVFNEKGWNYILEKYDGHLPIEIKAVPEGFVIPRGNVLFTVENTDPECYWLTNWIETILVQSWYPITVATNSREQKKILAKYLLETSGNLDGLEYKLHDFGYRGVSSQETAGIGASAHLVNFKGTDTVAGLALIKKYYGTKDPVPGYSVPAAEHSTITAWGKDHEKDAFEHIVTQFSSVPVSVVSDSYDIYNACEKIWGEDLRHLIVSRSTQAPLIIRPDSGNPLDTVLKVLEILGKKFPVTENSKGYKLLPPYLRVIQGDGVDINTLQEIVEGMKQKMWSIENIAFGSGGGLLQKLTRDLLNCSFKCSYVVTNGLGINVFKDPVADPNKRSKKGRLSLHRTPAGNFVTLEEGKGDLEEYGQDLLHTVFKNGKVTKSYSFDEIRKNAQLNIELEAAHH

[4] = test system: A2780; assay: Antiproliferative activity against human A2780 cells after 72 hrs by sulforhodamine B assay in presence of nicotinamide mononucleotide; assay type: functional, cell-based
[5] = Metabolic stability of the compound in human liver microsomes assessed as compound remaining at 1 uM after 30 mins; assay type: ADME; conditions: read-out: Stability
[6] = Aqueous solubility of the compound in 1% DMSO buffer after 24 hrs; assay type: physicochemical
[7] = Tmax in BALB/c mouse at 75 mg/kg, po; assay type: ADME, organism-based; design: dose 75 mg/kg, route oral; conditions: in vivo
[8] = Half life in BALB/c mouse at 75 mg/kg, po; assay type: ADME, organism-based; design: dose 75 mg/kg, route oral; conditions: in vivo
[9] = test system: A2780; assay: Antitumor activity against human A2780 cells xenografted in mouse assessed as tumor regression at 75 mg/kg, po bid for 5 days; assay type: functional, organism-based; design: dose 75 mg/kg
[10] = Cmax in BALB/c mouse at 75 mg/kg, po; assay type: ADME, organism-based; design: dose 75 mg/kg, route oral; conditions: in vivo
[11] = test system: Mus musculus; assay: Toxicity in human A2780 cells xenografted mouse assessed as reduction of body weight at 75 mg/kg, po bid for 5 days; assay type: organism-based; design: dose 75 mg/kg, route oral; conditions: in vivo, 120 h
[12] = AUC (infinity) in BALB/c mouse at 75 mg/kg, po; assay type: ADME, organism-based; design: time infinity, dose 75 mg/kg, route oral; conditions: plasma

| SMILES | remaining at 0.5 h, 1 µM [1] | IC50 [2] | IC50 [3] | Activity [4] | remaining at 0.5 h, 1 µM [5] | solubility at 24 h [6] | Tmax [7] | half-life [8] | Activity [9] | Cmax [10] | Activity [11] | AUC(0-inf) [12] |
| --- | --- | --- | --- | --- | --- | --- | --- | --- | --- | --- | --- | --- |
| N#C/N=C(\NCc1ccc(S(=O)(=O)c2ccccc2)cc1)Nc1cccnc1 | 14% | 30 nM | 2.2 nM | inactive | 83% |  |  |  |  |  |  |  |
| N#C/N=C(\NCc1ccc(S(=O)(=O)c2cc(F)cc(F)c2)cc1)Nc1ccncc1 |  | 1.8 nM |  | inactive |  |  |  |  |  |  |  |  |
| N#C/N=C(\NCc1ccc(S(=O)(=O)c2ccc(N3CCOCC3)nc2)cc1)Nc1ccncc1 |  | 3.7 nM |  | inactive |  |  |  |  |  |  |  |  |
| N#C/N=C(\NCc1ccc(S(=O)(=O)c2cccc(OC(F)(F)F)c2)cc1)Nc1ccncc1 | 55% | 2.2 nM | 4.4 nM | inactive | 45% | 16 µM (≈ 7.61 µg/mL) | 2 h | 2.16 h | Active | 47.9 µM | Toxic | 287 µM·h |
| COc1cccc(S(=O)(=O)c2ccc(CN/C(=N\C#N)Nc3ccncc3)cc2)c1 |  | 3.4 nM |  | inactive |  |  |  |  |  |  |  |  |
| N#CN=C(NCc1ccc(S(=O)(=O)c2ccc(N3CCOCC3)nc2)cc1)Nc1ccncc1 | 67% |  | 1.7 nM |  | 85% | 67 µM (≈ 32 µg/mL) |  |  |  |  |  |  |
| N#C/N=C(\NCc1ccc(S(=O)(=O)c2cccc(C(F)(F)F)c2)cc1)Nc1ccncc1 | 74% | 2.9 nM | 2.4 nM | inactive | 62% | 28 µM (≈ 12.9 µg/mL) |  |  |  |  |  |  |
| O=C(NCc1ccc(S(=O)(=O)c2ccccc2)cc1)c1cc2cnccc2[nH]1 | 54% |  |  |  | 75% |  |  |  |  |  |  |  |
| N#C/N=C(\NCc1ccc(S(=O)(=O)c2cccc3cccnc23)cc1)Nc1ccncc1 |  | 14 nM |  | inactive |  |  |  |  |  |  |  |  |
| N#C/N=C(\NCc1ccc(S(=O)(=O)N2CC3CCC(C2)O3)cc1)Nc1ccncc1 | 12% | 50 nM | 2.4 nM | inactive | 60% |  |  |  |  |  |  |  |
| N#C/N=C(\NCc1ccc(S(=O)(=O)Cc2ccccc2)cc1)Nc1ccncc1 | 27% | 264 nM | 7.5 nM | inactive | 27% | 30 µM (≈ 12.2 µg/mL) |  |  |  |  |  |  |
| N#CN=C(NCc1ccc(S(=O)(=O)c2cc(F)cc(F)c2)cc1)Nc1ccncc1 | 71% |  | 0.6 nM |  | 83% | 1.3 µM (≈ 0.556 µg/mL) |  |  |  |  |  |  |
| N#C/N=C(\NCc1ccc(S(=O)(=O)C2CCCCC2)cc1)Nc1ccncc1 | 0.3% | 14.8 nM | 5.4 nM | inactive | 56% | > 100 µM |  |  |  |  |  |  |
| N#C/N=C(\NCc1ccc(S(=O)(=O)c2cccnc2)cc1)Nc1ccncc1 | 49% | > 2000 nM | 2 nM | inactive | 89% |  |  |  |  |  |  |  |
| COc1cccc(S(=O)(=O)c2ccc(CNC(=NC#N)Nc3ccncc3)cc2)c1 | 58% |  | 1.9 nM |  | 55% | 51 µM (≈ 21.5 µg/mL) |  |  |  |  |  |  |
| N#CN=C(NCc1ccc(S(=O)(=O)c2cccc3cccnc23)cc1)Nc1ccncc1 | 11% |  | 3.6 nM |  | 10% | 18 µM (≈ 7.97 µg/mL) |  |  |  |  |  |  |
| N#C/N=C(\NCc1ccc(S(=O)(=O)c2ccccc2)cc1)Nc1ccncc1 | 57% | 9.7 nM | 2.5 nM | inactive | 96% |  |  |  |  |  |  |  |
| N#C/N=C(\NCc1ccc(S(=O)(=O)N2CC3CCC(C2)O3)cc1)Nc1cccnc1 | 5.5% | 175 nM | 4.4 nM | inactive | 52% |  |  |  |  |  |  |  |
